From patent US20220380331A1, “TREATMENT OF CONDITIONS OF THE NERVOUS SYSTEM” (priority 2019, published 2022)
“Also recorded” adds a separate entry of the source.

How the values were obtained:
PNN^+HEK cells = assay: Removal of PNNs in vitro in PNN+HEK cell model (WFA staining); type: cell-based, human
Source text: A previously developed human embryonic kidney 293T (HEK) cell model, engineered to express the essential ECM components (hyaluronan synthase 3 (HAS-3) and HAPLN-1) required to induce the formation of a pericellular PNN-like structure (PNN^+HEK cells) (Kwok et al., 2010), was used to investigate the efficacy of PNNi in removing PNNs in vitro (FIG. 9A-I).

[1] = system: locomotor function of intact rats; details: female, Lister Hooded, rat, in vivo, 10 days
Source text: Firstly, the inventors questioned whether PNN removal throughout the CNS would affect normal sensation and motor functions. To investigate this, adult female Lister Hooded rats (n=11) were given ten days of oral PNNi treatment and subjected to routine behavioural testing.

[2] = system: sensorimotor cortical slices; assay: Field potentials and paired-pulse protocols in in vitro sensorimotor cortical slices; set-up: species or system rat
Experimental: FIG. […]): Forelimb (FL) shifts into hindlimb (HL) area of sensorimotor cortex (M1) after perineuronal net inhibitor (PNNi) and spinal cord injury (SCI) combination. PNNi and/or injury independently enhances cortical plasticity in spinal cord injured rats. Intracortical microstimulation (ICMS) was performed at stereotaxic coordinates within a right hemisphere craniotomy 5 mm rostral/caudal to bregma (B) (A) 11 weeks post-injury. Representative heat maps per group illustrate the percentage of animals for each stereotaxic coordinate where HL (B-C) or FL (D-E) movements were able to be elicited. The Lister Hooded rat baseline HL and FL cortical maps (dotted outlines in B-E) were compared to groups with mid-thoracic SCI (B, D) and/or long-term PNNi administration (C, E) to assess structural plasticity. HL movements were unable to be elicited after SCI (B-C). Measurements for FL analysis (K-N) are illustrated in J). After PNNi and/or SCI, FL movements were elicited in areas that previously elicited HL movements (see right of white dotted outline D-E). […] G: Plot of the average field potential amplitudes vs. stimulus intensity per group. Synaptic responses were elicited in cortical layers II/III by electrical stimuli via bipolar electrodes placed in cortical layers V/VI. Recordings were performed on cortical slice at the following coordinates: ML: 2-3 mm and AP 1.40-1.8 mm caudal to bregma. […]

spinal cord injury = assay: 8 weeks PNNi with sustained rehabilitation after spinal cord injury, hindlimb motor recovery; type: in vivo, rat; details: terminated 2-3 weeks before end, continued rehabilitative training
Source text: FIG. […]): Limiting PNNi administration alongside sustained rehabilitation allows further hindlimb (HL) motor recovery. […] Bar graph showing the percentage of animals that were able to achieve forelimb-hindlimb (FL-HL) coordination at 9 weeks post-injury (WPI) at the end of PNNi administration, 10 and 12 WPI (B). […] (For groups, n=10 and 9 for 8 week PNNi and 8 week PNNi+T, respectively. Statistics, A, C-E: two-way mixed factorial ANOVA; significance levels: *p<0.05 **p<0.01 and ***p<0.001. A, C, D: Error bars are ±SEM.) Training was comprised of distributed practice quadrupedal interval treadmill training to provide task-specific rehabilitation. The first session commenced 7 days post injury (DPI) following locomotor behavioural tests described below. Daily training consisted of 10 minutes on the treadmill, followed by a 10 minute break before a final 10 minute session on the treadmill. Rats were trained five times a week at the maximal speed that they could maintain consecutive stepping for each 10-minute session on the treadmill. In order to enhance plasticity for effective functional recovery, we administer PNNi for 8 weeks in combination with 11 weeks of rehabilitation. Limiting PNNi administration alongside sustained rehabilitation allows further hindlimb (HL) motor but not sensory recovery (FIG. 12). […]

rats, mice and rabbits = details: very high doses; cited from earlier work
rats = details: cited from earlier work

**Q.** Which WFA-positive staining removed (PNN^+HEK cells; two days of treatment, 0.5 mM or 1.0 mM) does the source give for `Cc1cc(=O)oc2cc(O)ccc12` [PNNi, 4-methylumbelliferone] here?
**A.** 86.4±4.47%

**Q.** What about the “staining intensity recovered, of baseline lectin binding” value (PNN^+HEK cells; within three days post-treatment) of the same molecule?
**A.** 43.6±14.6%

**Q.** What about the FL correct steps [1] of the same molecule?
**A.** 94.4±0.56%

**Q.** And the FL missed steps [1]?
**A.** 1.13±0.24%

**Q.** What about the FL slipped steps [1] of the same molecule?
**A.** 4.35±0.54%

**Q.** And the “HL correct stepping on the horizontal ladder” value [1]?
**A.** approximately 92.7±0.82%

**Q.** What about the “HL misses on the horizontal ladder” value [1] of the same molecule?
**A.** 1.92±0.41%

**Q.** And the “HL slips on the horizontal ladder” value [1]?
**A.** 5.43±0.70%

**Q.** And the intracortical synaptic transmission ([2]; combination of SCI and PNNi treatment)?
**A.** increased intracortical synaptic transmission; also recorded: elevated synaptic transmission

**Q.** And the “paired-pulse inhibition (PPR)” value ([2]; sham animals, short and long interstimulus intervals)?
**A.** not altered

**Q.** And the “hindlimb (HL) motor recovery” value (spinal cord injury)?
**A.** a further HL improvement was observed

**Q.** What about the teratogenic effect (rats, mice and rabbits) of the same molecule?
**A.** does not seem to have a teratogenic effect

**Q.** What about the maximum tolerated dose (rats; oral, rats) of the same molecule?
**A.** 6000 mg/kg

**Q.** What about the “dose tolerated in rats” value (rats; rat, in vivo) of the same molecule?
**A.** at least 200 mg/kg/day

**Q.** What about the “mortality in the chronic study” value (rats; rats, 200 mg/kg/day and 40 mg/kg/day for three months) of the same molecule?
**A.** No mortality was reported
